Test results: US20150183737A1, “COMPOSITIONS AND METHODS FOR SUBSTRATE-SELECTIVE INHIBITION OF ENDOCANNABINOID OXYGENATION” (Vanderbilt University, priority 2012, published 2015)
Read-outs that look alike come from different tables or passages of the source. Values belong to the molecule of their own block, whether it stands above or below them.

Assays:
purified murine COX-2 [1] = biological target: T1, purified murine COX-2 (Mus musculus, UniProt Q05769); assay: Inhibition of mCOX-2 dependent oxygenation of 2-AG and AA by profens in vitro; type: biochemical; parameters: made in house; host or cells: insect cells
T1 sequence (Q05769 18-604): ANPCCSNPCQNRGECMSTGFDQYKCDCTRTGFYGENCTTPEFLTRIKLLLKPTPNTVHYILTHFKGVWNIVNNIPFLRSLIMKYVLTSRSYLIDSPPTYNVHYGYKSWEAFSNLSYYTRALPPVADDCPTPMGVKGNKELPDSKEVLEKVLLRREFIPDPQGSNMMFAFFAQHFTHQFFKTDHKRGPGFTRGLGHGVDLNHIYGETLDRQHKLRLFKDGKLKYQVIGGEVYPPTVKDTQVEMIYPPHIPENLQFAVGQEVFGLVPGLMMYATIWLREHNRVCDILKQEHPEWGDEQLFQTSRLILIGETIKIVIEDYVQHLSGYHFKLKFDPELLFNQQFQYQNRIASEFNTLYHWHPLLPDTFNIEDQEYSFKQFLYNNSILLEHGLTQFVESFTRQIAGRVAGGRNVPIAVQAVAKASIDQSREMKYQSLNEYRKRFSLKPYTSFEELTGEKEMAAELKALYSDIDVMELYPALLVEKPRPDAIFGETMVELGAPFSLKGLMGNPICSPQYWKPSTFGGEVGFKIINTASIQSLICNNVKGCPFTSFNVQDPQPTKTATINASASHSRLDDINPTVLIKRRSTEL
Procedure: Desired concentrations of inhibitor in DMSO or blank (DMSO) were incubated with mCOX-2 (40 nM) for 3 minutes in 100 mM Tris-HCl with 0.5 mM phenol, pH 8.0 at 37° C. After pre-incubation of enzyme and inhibitor, 5 μM of AA or 2-AG was added at 37° C. Thirty seconds later, the reaction was quenched with 200 μL of ice-cold ethyl acetate containing 0.5% acetic acid (v/v) and 1 μM PGE2-d4 and PGE2-G-d5. The solution was then vortexed and the aqueous layer frozen. The organic layer was removed and evaporated to near-dryness under nitrogen. The samples were reconstituted in 1:1 MeOH:H2O and chromatographed using a LUNA® C18(2) column (50 2 mm, 3 μm; Phenomenex, Torrance, Calif., United States of America). […] Analyte peak areas were normalized to the appropriate internal standard to determine the amount of product formation, and inhibition was determined by normalization to a DMSO control.

purified murine COX-2 [2] = biological target: T1, purified murine COX-2; assay: Inhibition of mCOX-2-dependent oxygenation of 2-AG and AA by lumiracoxib and derivatives in vitro; type: biochemical; parameters: made in house; host or cells: insect cells; dose or concentration left out as unconfirmed
[3] = tested on: brain eCB, AA and PG levels; assay: Brain eCB, NAE, MAG, AA and PG levels after i.p. injection; type: in vivo, mice; conditions: 40 mg/kg
Procedure: 5-7 week old male ICR mice were used for all experiments with the exception of knockout animals (Harlan, Indianapolis, Ind., United States of America). Mice were housed 5 per […]. All behavioral tests were conducted during the light cycle between 0900 and 1700. KO and WT littermate controls for FAAH^(−/−) and COX-2^(−/−) mice were derived from heterozygote breeding pairs, bred and genotyped as described in Uddin et al., 2011. CB1^(−/−) mice were bred from homozygote breeding pairs and genotyped as described in Pan et al., 2008. Mice were group-housed on a 12:12 light-dark cycle (lights on at 06:00), with food and water available ad libitum. All animal studies were approved by the Vanderbilt Institutional Animal Care and Use Committee and conducted in accordance with the Guide for the Care and Use of Laboratory Animals of the United States National Institutes of Health.
Mice were sacrificed by cervical dislocation and decapitation. The brain, lungs, liver, stomach, small intestines, and kidneys were then rapidly removed and frozen on a metal block in dry ice. The tissue was then placed in a tube and stored at −80° C. until extraction, usually one day after harvesting. For PG and eCB analysis, lipid extraction from tissue was carried out as described in Patel et al., 2009.
Analytes were quantified using LC-MS/MS on a Quantum triple-quadrupole mass spectrometer in positive-ion mode using selected reaction monitoring. Detection of eicosanoids was performed as described in Kingsley & Marnett, 2007. For fatty acid analysis the mobile phases used were 80 μM AgOAc with 0.1% (v/v) acetic acid in H2O (solvent A) and 120 μM AgOAc with 0.1% (v/v) acetic acid in MeOH (solvent B). The analytes were eluted using a gradient from 20% A to 99% B over 5 minutes. The transitions used were m/z 300→282 for PEA, m/z 328→310 for SEA, m/z 434→416 for OEA, m/z 456→438 for AEA, m/z 464→446 for AEA-d8, m/z 331→257 for 2-PG, m/z 359→285 for 2-SG, m/z 463→389 for 2-OG, m/z 485→411 for 2-AG, m/z 493→419 for 2-AG-d8, m/z 519→409 for AA, and m/z 527→417 for AA-d8. Peak areas for the analytes were normalized to the appropriate internal standard and then normalized to tissue mass for in vivo samples.

[4] = chiral profens, at 10 μM inhibitor, AA 5 μM, read-out: % Inhibition AA
[5] = chiral profens, murine COX-2 40 nM, 3 min preincubation, 2-AG 5 μM, mean ± SD, read-out: IC50 (μM) 2-AG
[6] = achiral profens, at 10 μM inhibitor, AA 5 μM, read-out: AA % Inhibition
[7] = achiral profens, murine COX-2 40 nM, 3 min preincubation, 2-AG 5 μM, 37° C., 30 s, mean ± SD, read-out: 2-AG IC50
[8] = read-out: Maximum inhibition of 2-AG oxygenation, achiral profens, at 10 μM inhibitor, 2-AG 5 μM
[9] = 0.5 min, achiral profens, murine COX-2 40 nM, 3 min preincubation, 2-AG 5 μM, 37° C., 30 s, mean ± SD, read-out: 2-AG IC50
[10] = 15 min incubation, read-out: Maximum inhibition of AA oxygenation (converted)
[11] = inhibitor incubated with enzyme for 15 min before addition of substrate, read-out: AA IC50

inhibition at 10 µM (purified murine COX-2 [1]; [4]): 20%
IC50 (purified murine COX-2 [1]; [5]): 0.9 µM
Compound: CC(C(=O)O)c1cccc(Oc2ccccc2)c1 (racemic) [Compound 6d, fenoprofen, reference compound]

inhibition at 10 µM (purified murine COX-2 [1]; [6]): 6%
IC50 (purified murine COX-2 [1]; [7]): 3.4 µM
inhibition at 10 µM (purified murine COX-2 [1]; [8]): 77%
Compound: COc1ccc2cc(C3(C(=O)O)CC3)ccc2c1 [Compound 5b, 1-(6-methoxynaphthalen-2-yl)cyclopropanecarboxylic acid]

inhibition at 10 µM (purified murine COX-2 [1]; [9]): < 50%
inhibition at 10 µM (purified murine COX-2 [1]; [6]): 10%
inhibition at 10 µM (purified murine COX-2 [1]; [8]): 45%
Compound: CC(C)Cc1ccc(C2(C(=O)O)CC2)cc1 [Compound 5c, 1-(4-isobutylphenyl)cyclopropanecarboxylic acid]

inhibition at 10 µM (purified murine COX-2 [1]; [6]): 15%
IC50 (purified murine COX-2 [1]; [7]): 5 µM
Compound: O=C(O)C1(c2cccc(Oc3ccccc3)c2)CC1 [Compound 5d, 1-(3-phenoxyphenol)cyclopropanecarboxylic acid]

inhibition at 10 µM (purified murine COX-2 [1]; [6]): 10%
IC50 (purified murine COX-2 [1]; [7]): 4.1 µM
inhibition at 10 µM (purified murine COX-2 [1]; [8]): 75%
Compound: O=C(c1ccccc1)c1cccc(C2(C(=O)O)CC2)c1 [Compound 5e, 1-(3-benzoylphenyl)cyclopropanecarboxylic acid]

The next lines start with the molecule.

Compound: CC(C(=O)O)c1cccc(C(=O)c2ccccc2)c1 (racemic) [Compound 6e, ketoprofen, reference compound]
IC50 (purified murine COX-2 [1]; [5]): 0.3 µM
inhibition at 10 µM (purified murine COX-2 [1]; read-out: % Inhibition AA): 50%

Compound: C[C@H](C(=O)O)c1cccc(Oc2ccccc2)c1 [(S)-fenoprofen, reference compound]
% Inhibition AA (purified murine COX-2 [1]; chiral profens, at 10 μM inhibitor, AA 5 μM): 30%
IC50 (purified murine COX-2 [1]; [5]): 0.9 µM

Compound: C[C@H](C(=O)O)c1cccc(C(=O)c2ccccc2)c1 [(S)-ketoprofen, reference compound]
IC50 (purified murine COX-2 [1]; [5]): 0.2 µM
inhibition at 10 µM (purified murine COX-2 [1]; read-out: % Inhibition AA): 55%

Compound: COc1ccc2cc(CC(=O)O)ccc2c1 [Compound 3b, 2-(6-methoxynaphthalen-2-yl)acetic acid]
inhibition at 10 µM (purified murine COX-2 [1]; [6]): 16%
IC50 (purified murine COX-2 [1]; [7]): 1.4 µM

Compound: CC(C)Cc1ccc(CC(=O)O)cc1 [Compound 3c, 2-(4-isobutylphenyl)acetic acid]
inhibition at 10 µM (purified murine COX-2 [1]; [6]): 14%
IC50 (purified murine COX-2 [1]; [7]): 5.5 µM

Compound: O=C(O)Cc1cccc(Oc2ccccc2)c1 [Compound 3d, 2-(3-phenoxyphenyl)acetic acid]
inhibition at 10 µM (purified murine COX-2 [1]; [6]): 24%
IC50 (purified murine COX-2 [1]; [7]): 6.1 µM
inhibition at 10 µM (purified murine COX-2 [1]; [8]): 68%

Compound: O=C(O)Cc1cccc(C(=O)c2ccccc2)c1 [Compound 3e, Desmethylketoprofen]
inhibition at 10 µM (purified murine COX-2 [1]; [6]): 10%
IC50 (purified murine COX-2 [1]; [7]): 0.5 µM

Compound: COc1ccc2cc(C(C)(C)C(=O)O)ccc2c1 [Compound 4b, 2-(6-methoxynaphthalen-2-yl)-2-methylpropanoic acid]
inhibition at 10 µM (purified murine COX-2 [1]; [9]): < 50%
inhibition at 10 µM (purified murine COX-2 [1]; [6]): 7%
inhibition at 10 µM (purified murine COX-2 [1]; [8]): 12%

Compound: CC(C)Cc1ccc(C(C)(C)C(=O)O)cc1 [Compound 4c, 2-(4-isobutylphenyl)-2-methylpropanoic acid]
inhibition at 10 µM (purified murine COX-2 [1]; [9]): < 50%
inhibition at 10 µM (purified murine COX-2 [1]; [6]): 5%
inhibition at 10 µM (purified murine COX-2 [1]; [8]): 5%

Compound: CC(C)(C(=O)O)c1cccc(Oc2ccccc2)c1 [Compound 4d, 2-methyl-2-(3-phenoxyphenyl)propanoic acid]
inhibition at 10 µM (purified murine COX-2 [1]; [6]): 17%
IC50 (purified murine COX-2 [1]; [7]): 7.3 µM
inhibition at 10 µM (purified murine COX-2 [1]; [8]): 65%

Compound: CC(C)(C(=O)O)c1cccc(C(=O)c2ccccc2)c1 [Compound 4e, 2-(3-benzoylphenyl)-2-methylpropanoic acid]
inhibition at 10 µM (purified murine COX-2 [1]; [6]): 32%
IC50 (purified murine COX-2 [1]; [7]): 3 µM

Compound: C[C@@H](C(=O)O)c1cccc(Oc2ccccc2)c1 [Compound 7d, (R)-Fenoprofen]
inhibition at 10 µM (purified murine COX-2 [1]; [4]): 10%
inhibition at 10 µM (purified murine COX-2 [1]; read-out: IC50 (μM) 2-AG): < 50%
inhibition at 10 µM (purified murine COX-2 [1]; read-out: Maximum inhibition of 2-AG oxygenation, chiral profens, at 10 μM inhibitor, 2-AG 5 μM): 25%

Compound: C[C@@H](C(=O)O)c1cccc(C(=O)c2ccccc2)c1 [Compound 7e, (R)-ketoprofen]
IC50 (purified murine COX-2 [1]; [5]): 7.3 µM
inhibition at 10 µM (purified murine COX-2 [1]; read-out: % Inhibition AA): 20%
inhibition at 10 µM (purified murine COX-2 [1]; read-out: Maximum inhibition of 2-AG oxygenation): 56%

Compound: Cc1ccc(Nc2c(F)cccc2Cl)c(CC(=O)O)c1 [Compound 101]
inhibition (purified murine COX-2 [2]; read-out: AA IC50 (mM)): < 50%

Compound: Cc1ccc(Nc2ccccc2Cl)c(CC(=O)O)c1 [Compound 102]
inhibition (purified murine COX-2 [2]; [10]): 0%
inhibition (purified murine COX-2 [2]; [11]): < 50%

Compound: Cc1ccc(Nc2ccccc2F)c(CC(=O)O)c1 [Compound 103]
inhibition (purified murine COX-2 [2]; [10]): 0%
inhibition (purified murine COX-2 [2]; [11]): < 50%

Compound: Cc1ccc(Nc2ccccc2)c(CC(=O)O)c1 [Compound 104]
inhibition (purified murine COX-2 [2]; [10]): 10%
inhibition (purified murine COX-2 [2]; [11]): < 50%

Compound: Cc1ccc(Nc2c(Cl)cccc2Cl)c(CC(=O)O)c1 [Compound 105]
inhibition (purified murine COX-2 [2]; [10]): 60%

Compound: Cc1ccc(Nc2c(F)cccc2F)c(CC(=O)O)c1 [Compound 106]
inhibition (purified murine COX-2 [2]; [10]): 0%
inhibition (purified murine COX-2 [2]; [11]): < 50%

Compound: Cc1ccc(Nc2c(C)cccc2F)c(CC(=O)O)c1 [Compound 107]
inhibition (purified murine COX-2 [2]; [11]): < 50%

Compound: Cc1ccc(Nc2c(Cl)cc(Cl)cc2Cl)c(CC(=O)O)c1 [Compound 108]
inhibition (purified murine COX-2 [2]; [10]): 32%
inhibition (purified murine COX-2 [2]; [11]): < 50%

Compound: O=C(O)Cc1ccccc1Nc1c(F)cccc1Cl [Compound 109]
inhibition (purified murine COX-2 [2]; read-out: AA IC50 (mM)): < 50%

Compound: O=C(O)Cc1ccccc1Nc1ccccc1Cl [Compound 110]
inhibition (purified murine COX-2 [2]; read-out: AA IC50 (mM)): < 50%

Compound: O=C(O)Cc1ccccc1Nc1ccccc1F [Compound 111]
inhibition (purified murine COX-2 [2]; [10]): 0%
inhibition (purified murine COX-2 [2]; [11]): < 50%

Compound: O=C(O)Cc1ccccc1Nc1ccccc1 [Compound 112]
inhibition (purified murine COX-2 [2]; read-out: AA IC50 (mM)): < 50%

Compound: O=C(O)Cc1ccccc1Nc1c(F)cccc1F [Compound 114]
inhibition (purified murine COX-2 [2]; read-out: AA IC50 (mM)): < 50%

Compound: O=C(Oc1ccc([N+](=O)[O-])cc1)N1CCC(C(O)(c2ccc3c(c2)OCO3)c2ccc3c(c2)OCO3)CC1 [JZL-184, reference compound]
Brain levels of 2-AG and 3 other MAG species [3]: increased
